Experiments:
HOP-62 = assay: Growth inhibition of human HOP62 cells incubated for 48 hrs by sulforhodamine B assay; assay type: functional, cell-based; details: HOP-62, 48 h
Malme-3M [1] = assay: Growth inhibition of human MALME-3M cells assessed as cell growth at 0.1 uM incubated for 48 hrs by sulforhodamine B assay relative to control; assay type: functional; details: read-out: Activity
CAKI-1 [2] = assay: Growth inhibition of human Caki1 cells assessed as cell growth at 0.1 uM incubated for 48 hrs by sulforhodamine B assay relative to control; assay type: functional; details: CAKI-1, 48 h, read-out: Activity
SF-295 = assay: Growth inhibition of human SF295 cells assessed as cell growth at 0.01 uM incubated for 48 hrs by sulforhodamine B assay relative to control; assay type: functional; details: SF-295, 48 h, read-out: Activity
SNB-75 = assay: Growth inhibition of human SNB75 cells incubated for 48 hrs by sulforhodamine B assay; assay type: functional, cell-based; details: SNB-75, 48 h
786-0 = assay: Growth inhibition of human 786-0 cells assessed as cell growth at 0.1 uM incubated for 48 hrs by sulforhodamine B assay relative to control; assay type: functional; details: 786-0, 48 h, read-out: Activity
KM12 [3] = assay: Growth inhibition of human KM12 cells assessed as cell growth at 0.01 uM incubated for 48 hrs by sulforhodamine B assay relative to control; assay type: functional; details: KM12, 48 h, read-out: Activity
U-251 [4] = assay: Growth inhibition of human U251 cells incubated for 48 hrs by sulforhodamine B assay; assay type: functional, cell-based; details: U-251, 48 h
MDA-MB-231 = assay: Growth inhibition of human MDA-MB-231 cells assessed as cell growth at 100 uM incubated for 48 hrs by sulforhodamine B assay relative to control; assay type: functional; details: MDA-MB-231, 48 h, read-out: Activity
Hs-578T [5] = assay: Growth inhibition of human Hs578T cells assessed as cell growth at 1 uM incubated for 48 hrs by sulforhodamine B assay relative to control; assay type: functional; details: read-out: Activity
NCI-H322M [6] = assay: Growth inhibition of human NCI-H322M cells incubated for 48 hrs by sulforhodamine B assay; assay type: functional, cell-based
NCI-H322M [7] = assay: Growth inhibition of human NCI-H322M cells assessed as cell growth at 0.01 uM incubated for 48 hrs by sulforhodamine B assay relative to control; assay type: functional; details: read-out: Activity
HCC 2998 = assay: Growth inhibition of human HCC2998 cells assessed as cell growth at 0.1 uM incubated for 48 hrs by sulforhodamine B assay relative to control; assay type: functional; details: HCC 2998, 48 h, read-out: Activity
Hs-578T [8] = assay: Growth inhibition of human Hs578T cells assessed as cell growth at 0.01 uM incubated for 48 hrs by sulforhodamine B assay relative to control; assay type: functional; details: read-out: Activity
HCT-15 = assay: Growth inhibition of human HCT15 cells assessed as cell growth at 0.01 uM incubated for 48 hrs by sulforhodamine B assay relative to control; assay type: functional; details: HCT-15, 48 h, read-out: Activity
NCI/ADR-RES = assay: Growth inhibition of human NCI/ADR-RES cells assessed as cell growth at 1 uM incubated for 48 hrs by sulforhodamine B assay relative to control; assay type: functional; details: read-out: Activity
U-251 [9] = assay: Growth inhibition of human U251 cells assessed as cell growth at 100 uM incubated for 48 hrs by sulforhodamine B assay relative to control; assay type: functional; details: U-251, 48 h, read-out: Activity
NCI-H460 = assay: Growth inhibition of human NCI-H460 cells assessed as cell growth at 100 uM incubated for 48 hrs by sulforhodamine B assay relative to control; assay type: functional; details: NCI-H460, 48 h, read-out: Activity
SF-539 = assay: Growth inhibition of human SF539 cells assessed as cell growth at 100 uM incubated for 48 hrs by sulforhodamine B assay relative to control; assay type: functional; details: SF-539, 48 h, read-out: Activity
MOLT-4 = assay: Growth inhibition of human MOLT4 cells assessed as cell growth at 100 uM incubated for 48 hrs by sulforhodamine B assay relative to control; assay type: functional; details: MOLT-4, 48 h, read-out: Activity
UO-31 = assay: Growth inhibition of human UO31 cells incubated for 48 hrs by sulforhodamine B assay; assay type: functional, cell-based; details: UO-31, 48 h
PC-3 = assay: Growth inhibition of human PC3 cells assessed as cell growth at 100 uM incubated for 48 hrs by sulforhodamine B assay relative to control; assay type: functional; details: PC-3, 48 h, read-out: Activity
SK-MEL-2 = assay: Growth inhibition of human SK-MEL-2 cells assessed as cell growth at 10 uM incubated for 48 hrs by sulforhodamine B assay relative to control; assay type: functional; details: SK-MEL-2, 48 h, read-out: Activity
SK-OV-3 = assay: Growth inhibition of human SKOV3 cells assessed as cell growth at 0.1 uM incubated for 48 hrs by sulforhodamine B assay relative to control; assay type: functional; details: SK-OV-3, 48 h, read-out: Activity
UACC-62 = assay: Growth inhibition of human UACC62 cells assessed as cell growth at 0.01 uM incubated for 48 hrs by sulforhodamine B assay relative to control; assay type: functional; details: UACC-62, 48 h, read-out: Activity
Malme-3M [10] = assay: Growth inhibition of human MALME-3M cells assessed as cell growth at 0.01 uM incubated for 48 hrs by sulforhodamine B assay relative to control; assay type: functional; details: read-out: Activity
CAKI-1 [11] = assay: Growth inhibition of human Caki1 cells assessed as cell growth at 0.01 uM incubated for 48 hrs by sulforhodamine B assay relative to control; assay type: functional; details: CAKI-1, 48 h, read-out: Activity
OVCAR-4 = assay: Growth inhibition of human OVCAR4 cells assessed as cell growth at 0.01 uM incubated for 48 hrs by sulforhodamine B assay relative to control; assay type: functional; details: OVCAR-4, 48 h, read-out: Activity
KM12 [12] = assay: Growth inhibition of human KM12 cells assessed as cell growth at 0.1 uM incubated for 48 hrs by sulforhodamine B assay relative to control; assay type: functional; details: KM12, 48 h, read-out: Activity
MDA-MB-435 = assay: Growth inhibition of human MDA-MB-435 cells assessed as cell growth at 0.01 uM incubated for 48 hrs by sulforhodamine B assay relative to control; assay type: functional; details: MDA-MB-435, 48 h, read-out: Activity
[13] = read-out: LC50 (the source's name)
[14] = read-out: pLC50 (the source's name) (converted)

COc1cc(Cl)cc(-c2nn(-c3cccc(NC(=O)Nc4ccc(Cl)c(C(F)(F)F)c4)c3)cc2-c2ccncc2)c1
GI50 (HOP-62; read-out: GI50): 2.12 µM
CC50 (HOP-62; [13]): > 100 µM
TGI (HOP-62; read-out: TGI): 63.2 µM
GI50 (HOP-62; read-out: pGI50 (converted)): 2.14 µM
CC50 (HOP-62; [14]): > 100 µM
TGI (HOP-62; read-out: pTGI (converted)): 6.31 µM
growth at 0.1 µM (Malme-3M [1]): 79%
growth at 0.1 µM (CAKI-1 [2]): 99%
growth at 0.01 µM (SF-295): 59%
GI50 (SNB-75; read-out: GI50): 1.77 µM
CC50 (SNB-75; [13]): > 100 µM
TGI (SNB-75; read-out: TGI): 11.1 µM
GI50 (SNB-75; read-out: pGI50 (converted)): 1.78 µM
CC50 (SNB-75; [14]): > 100 µM
TGI (SNB-75; read-out: pTGI (converted)): 11.2 µM
growth at 0.1 µM (786-0): 96%
growth at 0.01 µM (KM12 [3]): 95%
IC50 (U-251 [4]): 0.73 µM
GI50 (U-251 [4]; read-out: GI50): 0.729 µM
CC50 (U-251 [4]; [13]): 5 µM
TGI (U-251 [4]; read-out: TGI): 21.1 µM
GI50 (U-251 [4]; read-out: pGI50 (converted)): 0.724 µM
CC50 (U-251 [4]; [14]): 5.01 µM
TGI (U-251 [4]; read-out: pTGI (converted)): 2.09 µM
growth at 100 µM (MDA-MB-231): -88%
growth at 1 µM (Hs-578T [5]): 89%
GI50 (NCI-H322M [6]; read-out: GI50): 3.38 µM
CC50 (NCI-H322M [6]; [13]): > 100 µM
TGI (NCI-H322M [6]; read-out: TGI): 24 µM
GI50 (NCI-H322M [6]; read-out: pGI50 (converted)): 3.39 µM
CC50 (NCI-H322M [6]; [14]): > 100 µM
TGI (NCI-H322M [6]; read-out: pTGI (converted)): 25.1 µM
growth at 0.01 µM (NCI-H322M [7]): 96%
growth at 0.1 µM (HCC 2998): 94%
growth at 0.01 µM (Hs-578T [8]): 95%
growth at 0.01 µM (HCT-15): 92%
growth at 1 µM (NCI/ADR-RES): 66%
growth at 100 µM (U-251 [9]): -100%
growth at 100 µM (NCI-H460): -62%
growth at 100 µM (SF-539): -78%
growth at 100 µM (MOLT-4): -28%
IC50 (UO-31): 1.66 µM
GI50 (UO-31; read-out: GI50): 1.56 µM
CC50 (UO-31; [13]): 95.4 µM
TGI (UO-31; read-out: TGI): 10.9 µM
GI50 (UO-31; read-out: pGI50 (converted)): 1.66 µM
CC50 (UO-31; [14]): 97.7 µM
TGI (UO-31; read-out: pTGI (converted)): 11 µM
growth at 100 µM (PC-3): -15%
growth at 10 µM (SK-MEL-2): -34%
growth at 0.1 µM (SK-OV-3): 100%
growth at 0.01 µM (UACC-62): 95%
growth at 0.01 µM (Malme-3M [10]): 94%
growth at 0.01 µM (CAKI-1 [11]): 98%
growth at 0.01 µM (OVCAR-4): 99%
growth at 0.1 µM (KM12 [12]): 98%
growth at 0.01 µM (MDA-MB-435): 95%

O=C(Nc1cccc(-n2cc(-c3ccncc3)c(-c3cc(O)cc(Cl)c3)n2)c1)Nc1ccc(Cl)c(C(F)(F)F)c1
GI50 (HOP-62; read-out: GI50): 3.06 µM
CC50 (HOP-62; [13]): > 100 µM
TGI (HOP-62; read-out: TGI): 13.4 µM
GI50 (HOP-62; read-out: pGI50 (converted)): 3.09 µM
CC50 (HOP-62; [14]): > 100 µM
TGI (HOP-62; read-out: pTGI (converted)): 13.5 µM
growth at 0.1 µM (Malme-3M [1]): 81%
growth at 0.1 µM (CAKI-1 [2]): 103%
growth at 0.01 µM (SF-295): 58%
GI50 (SNB-75; read-out: GI50): 1.49 µM
CC50 (SNB-75; [13]): > 100 µM
TGI (SNB-75; read-out: TGI): 63.6 µM
GI50 (SNB-75; read-out: pGI50 (converted)): 1.48 µM
CC50 (SNB-75; [14]): > 100 µM
TGI (SNB-75; read-out: pTGI (converted)): 6.31 µM
growth at 0.1 µM (786-0): 95%
growth at 0.01 µM (KM12 [3]): 91%
IC50 (U-251 [4]): 1.72 µM
GI50 (U-251 [4]; read-out: GI50): 1.72 µM
CC50 (U-251 [4]; [13]): 77.5 µM
TGI (U-251 [4]; read-out: TGI): 30 µM
GI50 (U-251 [4]; read-out: pGI50 (converted)): 1.74 µM
CC50 (U-251 [4]; [14]): 7.76 µM
TGI (U-251 [4]; read-out: pTGI (converted)): 3.63 µM
growth at 100 µM (MDA-MB-231): -38%
growth at 1 µM (Hs-578T [5]): 87%
GI50 (NCI-H322M [6]; read-out: GI50): 3.15 µM
CC50 (NCI-H322M [6]; [13]): 95.5 µM
TGI (NCI-H322M [6]; read-out: TGI): 13 µM
GI50 (NCI-H322M [6]; read-out: pGI50 (converted)): 3.16 µM
CC50 (NCI-H322M [6]; [14]): 95.5 µM
TGI (NCI-H322M [6]; read-out: pTGI (converted)): 12.9 µM
growth at 0.01 µM (NCI-H322M [7]): 107%
growth at 0.1 µM (HCC 2998): 97%
growth at 0.01 µM (Hs-578T [8]): 95%
growth at 0.01 µM (HCT-15): 93%
growth at 1 µM (NCI/ADR-RES): 97%
growth at 100 µM (U-251 [9]): -84%
growth at 100 µM (NCI-H460): -52%
growth at 100 µM (SF-539): -50%
growth at 100 µM (MOLT-4): -39%
IC50 (UO-31): 2.1 µM
GI50 (UO-31; read-out: GI50): 2.1 µM
CC50 (UO-31; [13]): 34.7 µM
TGI (UO-31; read-out: TGI): 61.4 µM
GI50 (UO-31; read-out: pGI50 (converted)): 2.63 µM
CC50 (UO-31; [14]): 34.7 µM
TGI (UO-31; read-out: pTGI (converted)): 6.17 µM
growth at 100 µM (PC-3): -83%
growth at 10 µM (SK-MEL-2): -38%
growth at 0.1 µM (SK-OV-3): 104%
growth at 0.01 µM (UACC-62): 104%
growth at 0.01 µM (Malme-3M [10]): 93%
growth at 0.01 µM (CAKI-1 [11]): 102%
growth at 0.01 µM (OVCAR-4): 99%
growth at 0.1 µM (KM12 [12]): 92%
growth at 0.01 µM (MDA-MB-435): 97%

— ChEMBL document CHEMBL4308841, “Synthesis, in vitro antiproliferative activity, and kinase inhibitory effects of pyrazole-containing diarylureas and diarylamides” (Eur J Med Chem, 2018)
